Counter-ions that a name gives are not always drawn.
Each compound was assayed on HELA cells (assay: HELA cell proliferation assay (CellTitre-Glo, 6 days)). Settings: Homo sapiens, 144 h; HELA cells, 6 days treatment, CellTitre-Glo; read-out: HeLa pIC50 (converted).
Assay type: cell-based

Row | SMILES | IC50 [M]
1 | Nc1nc(NC2COc3cccc(F)c32)nc(-c2ccc3cn[nH]c3c2)n1 (stereo not shown) [Example 5, N2-(4-fluoro-2,3-dihydrobenzofuran-3-yl)-6-(1H-indazol-6-yl)-1,3,5-triazine-2,4-diamine] | 3.39e-06
2 | Nc1nc(NC2(c3ccccn3)CC2)nc(-c2ccc3cn[nH]c3c2)n1 [Example 6, 6-(1H-indazol-6-yl)-N2-[1-(2-pyridyl)cyclopropyl]-1,3,5-triazine-2,4-diamine] | 5.89e-07
3 | Nc1nc(NCc2cccc(C(F)(F)F)n2)nc(-c2ccc3cn[nH]c3c2)n1 [Example 8, 6-(1H-indazol-6-yl)-N2-[[6-(trifluoromethyl)-2-pyridyl]methyl]-1,3,5-triazine-2,4-diamine] | 9.33e-07
4 | Nc1nc(NC2(c3ccn(C(F)F)n3)CC2)nc(-c2ccc3cn[nH]c3c2)n1 [Example 22, N2-[1-[1-(Difluoromethyl)pyrazol-3-yl]cyclopropyl]-6-(1H-indazol-6-yl)-1,3,5-triazine-2,4-diamine] | 1.35e-07
5 | Nc1nc(NC2(c3cccc(F)c3F)CC2)nc(-c2ccc3cn[nH]c3c2)n1 [Example 23, N2-[1-(2,3-Difluorophenyl)cyclopropyl]-6-(1H-indazol-6-yl)-1,3,5-triazine-2,4-diamine] | 2.24e-07
6 | Nc1nc(NCc2cccc(F)c2Cl)nc(-c2ccc3cn[nH]c3c2)n1 [Example 24, N2-[(2-chloro-3-fluoro-phenyl)methyl]-6-(1H-indazol-6-yl)-1,3,5-triazine-2,4-dia mine] | 2.88e-07
7 | CC(C)(Nc1nc(N)nc(-c2ccc3cn[nH]c3c2)n1)c1cccc(F)c1F [Example 28, N2-[1-(2,3-difluorophenyl)-1-methyl-ethyl]-6-(1H-indazol-6-yl)-1,3,5-triazine-2,4-di amine] | 1.91e-07
8 | Nc1nc(NCc2cccc(F)c2F)nc(-c2ccc3cncn3c2)n1 [Example 30, N4-[(2,3-Difluorophenyl)methyl]-6-imidazo[1,5-a]pyridin-6-yl-1,3,5-triazine-2,4-dia mine] | 1.55e-07
9 | Cn1ncc2ccc(-c3nc(N)nc(NC4(c5ccn(C(F)F)n5)CC4)n3)cc21 [Example 32, N4-[1-[1-(Difluoromethyl)pyrazol-3-yl]cyclopropyl]-6-(1-methylindazol-6-yl)-1,3,5-triazine-2,4-diamine] | 1.29e-06
10 | CN(c1nc(N)nc(-c2ccc3cncn3c2)n1)C(C)(C)c1ccn(C(F)F)n1 [Example 34, N4-[1-[1-(difluoromethyl)pyrazol-3-yl]-1-methyl-ethyl]-6-imidazo[1,5-a]pyridin-6-yl-N4-methyl-1,3,5-triazine-2,4-diamine] | 7.76e-07
11 | Nc1nc(NC2(c3ccn(C(F)F)n3)CC2)nc(-c2ccc3cncn3c2)n1 [Example 35, N4-[1-[1-(Difluoromethyl)pyrazol-3-yl]cyclopropyl]-6-imidazo[1,5-a]pyridin-6-yl-1,3,5-triazine-2,4-diamine] | 1.48e-07
12 | CC(C)(Nc1nc(N)nc(-c2ccc3cncn3c2)n1)c1ccn(C(F)F)n1 [Example 36, N4-[1-[1-(difluoromethyl)pyrazol-3-yl]-1-methyl-ethyl]-6-imidazo[1,5-a]pyridin-6-yl-1,3,5-triazine-2,4-diamine] | 4.47e-08
13 | Cc1ncc2ccc(-c3nc(N)nc(NC(C)(C)c4ccn(C(F)F)n4)n3)cn12 [Example 37, N4-[1-[1-(difluoromethyl)pyrazol-3-yl]-1-methyl-ethyl]-6-(3-methylimidazo[1,5-a]pyridin-6-yl)-1,3,5-triazine-2,4-diamine] | 3.55e-07
14 | Cc1ncc2ccc(-c3nc(N)nc(NC(C)(C)c4cccc(F)c4F)n3)cn12 [Example 39, N4-[1-(2,3-difluorophenyl)-1-methyl-ethyl]-6-(3-methylimidazo[1,5-a]pyridin-6-yl)-1,3,5-triazine-2,4-diamine] | 4.17e-07
15 | CN(CCc1cccc(Cl)c1Cl)c1nc(N)nc(-c2ccc3cn[nH]c3c2)n1 [Example 43, N4-[2-(2,3-dichlorophenyl)ethyl]-6-(1H-indazol-6-yl)-N4-methyl-1,3,5-triazine-2,4-diamine] | 2.09e-06
16 | Nc1nc(NCc2c(Cl)ccc(F)c2F)nc(-c2ccc3cn[nH]c3c2)n1 [Example 51, N2-[(6-chloro-2,3-difluoro-phenyl)methyl]-6-(1H-indazol-6-yl)-1,3,5-triazine-2,4-di amine] | 1.48e-06

Row | SMILES | IC50 [M]
17 | Cc1cccc(CCNc2nc(N)nc(-c3ccc4cn[nH]c4c3)n2)n1 [Example 54, 6-(1H-indazol-6-yl)-N2-[2-(6-methyl-2-pyridyl)ethyl]-1,3,5-triazine-2,4-diamine] | 1.66e-06
18 | CC(C)(Nc1nc(N)nc(-c2ccc3cn[nH]c3c2)n1)c1ccn(C(F)F)n1 [Example 60, N2-[1-[1-(difluoromethyl)pyrazol-3-yl]-1-methyl-ethyl]-6-(1H-indazol-6-yl)-1,3,5-tri azine-2,4-diamine] | 3.47e-08
19 | Nc1nc(NCc2cccc(F)c2F)nc(-c2ccc3cn[nH]c3c2)n1 [Example 70, N2-[(2,3-difluorophenyl)methyl]-6-(1H-indazol-6-yl)-1,3,5-triazine-2,4-diamine] | 1.15e-07
20 | CC(C)(Nc1nc(N)nc(-c2ccc3cncn3c2)n1)c1ccccn1 [Example 72, 6-imidazo[1,5-a]pyridin-6-yl-N2-[1-methyl-1-(2-pyridyl)ethyl]-1,3,5-triazine-2,4-di amine] | 4.07e-07
21 | Nc1nc(NCc2cccc(F)c2Cl)nc(-c2ccc3cncn3c2)n1 [Example 73, N2-[(2-chloro-3-fluoro-phenyl)methyl]-6-imidazo[1,5-a]pyridin-6-yl-1,3,5-triazine-2,4-diamine] | 4.27e-07
22 | Nc1nc(NCc2ccn(C(F)F)n2)nc(-c2ccc3cncn3c2)n1 [Example 74, N2-[[1-(difluoromethyl)pyrazol-3-yl]methyl]-6-imidazo[1,5-a]pyridin-6-yl-1,3,5-tria zine-2,4-diaminediamine] | 4.9e-07
23 | Nc1nc(NC2(c3ccn(C(F)F)n3)CCC2)nc(-c2ccc3cn[nH]c3c2)n1 [Example 81, N2-[1-[1-(Difluoromethyl)pyrazol-3-yl]cyclobutyl]-6-(1H-indazol-6-yl)-1,3,5-tria zine-2,4-diamine] | 2.14e-07
24 | Cn1ncc2ccc(-c3nc(N)nc(NC4(c5ccn(C(F)F)n5)CCC4)n3)cc21 [Example 82, N4-[1-[1-(Difluoromethyl)pyrazol-3-yl]cyclobutyl]-6-(1-methylindazol-6-yl)-1,3,5-triazine-2,4-diamine] | 2.4e-06
25 | Nc1nc(NC2(c3nn(C(F)F)cc3Cl)CC2)nc(-c2ccc3cn[nH]c3c2)n1 [Example 84, N4-[1-[4-chloro-1-(difluoromethyl)pyrazol-3-yl]cyclopropyl]-6-(1H-indazol-6-yl)-1,3,5-triazine-2,4-diamine] | 6.46e-07
26 | COc1cccc(CNc2nc(N)nc(-c3ccc4cn[nH]c4c3)n2)c1F [Example 85, N2-[(2-Fluoro-3-methoxy-phenyl)methyl]-6-(1H-indazol-6-yl)-1,3,5-triazine-2,4-diamine] | 1.58e-06
27 | Nc1nc(NC2(c3c[nH]cn3)CC2)nc(-c2ccc3cn[nH]c3c2)n1 [Example 86, N2-[1-(1H-Imidazol-4-yl)cyclopropyl]-6-(1H-indazol-6-yl)-1,3,5-triazine-2,4-dia mine; 2,2,2-trifluoroacetate] | 1e-05
28 | Cc1ccc(CNc2nc(N)nc(-c3ccc4cn[nH]c4c3)n2)c(F)c1F [Example 88, N2-[(2,3-Difluoro-4-methyl-phenyl)methyl]-6-(1H-indazol-6-yl)-1,3,5-triazine-2,4-diamine] | 1.29e-06
29 | Nc1nc(NC2COc3cc(F)ccc32)nc(-c2ccc3cn[nH]c3c2)n1 (stereo not shown) [Example 89, N2-(6-fluoro-2,3-dihydrobenzofuran-3-yl)-6-(1H-indazol-6-yl)-1,3,5-triazine-2,4-diamine] | 8.51e-07
30 | Nc1nc(NC2COc3cc(F)cc(F)c32)nc(-c2ccc3cn[nH]c3c2)n1 (stereo not shown) [Example 90, N2-(4,6-Difluoro-2,3-dihydrobenzofuran-3-yl)-6-(1H-indazol-6-yl)-1,3,5-triazine-2,4-diamine] | 1.55e-06
31 | Cn1ncc2ccc(-c3nc(N)nc(NC(C)(C)c4nn(C(F)F)cc4Cl)n3)cc21 [Example 97, N4-[1-[4-chloro-1-(difluoromethyl)pyrazol-3-yl]-1-methyl-ethyl]-6-(1-methylindazol-6-yl)-1,3,5-triazine-2,4-diamine] | 7.94e-07
32 | Cn1ncc2ccc(-c3nc(N)nc(NC(C)(C)c4ccn(C(F)F)n4)n3)cc21 [Example 101, N2-[1-[1-(difluoromethyl)pyrazol-3-yl]-1-methyl-ethyl]-6-(1-methylindazol-6-yl)-1,3,5-triazine-2,4-diamine] | 2.57e-07

Same assay, conditions: Homo sapiens, HeLa, 144 h, read-out: HeLa pIC50 (M) (converted)

Row | SMILES | IC50 [M]
33 | Nc1nc(NC2(c3cccc(C(F)(F)F)n3)CC2)nc(-c2ccc3cn[nH]c3c2)n1 [Example 1, 6-(1H-indazol-6-yl)-N2-[1-[6-(trifluoromethyl)-2-pyridyl]cyclopropyl]-1,3,5-triazine-2,4-diamine hydrochloride] | 1.07e-06
34 | Nc1nc(-c2ccc3cn[nH]c3c2)nc(N2CCOCC2Cc2cccc(Cl)c2Cl)n1 (stereo not shown) [Example 3, 4-[3-[(2,3-dichlorophenyl)methyl]morpholin-4-yl]-6-(1H-indazol-6-yl)-1,3,5-triaz in-2-amine hydrochloride] | 2.95e-06
35 | CC(C)(Nc1nc(N)nc(-c2ccc3cn[nH]c3c2)n1)c1cccc(C(F)(F)F)n1 [Example 4, 6-(1H-indazol-6-yl)-N2-[1-methyl-1-[6-(trifluoromethyl)-2-pyridyl]ethyl]-1,3,5-tr iazine-2,4-diamine hydrochloride] | 1.7e-07
36 | CC(C)(Nc1nc(N)nc(-c2ccc3cn[nH]c3c2)n1)c1ccccn1 [Example 12, 6-(1H-indazol-6-yl)-N2-[1-methyl-1-(2-pyridyl)ethyl]-1,3,5-triazine-2,4-diamine hydrochloride] | 1.74e-07
37 | CC(C)(Nc1nc(N)nc(-c2ccc3cn[nH]c3c2)n1)c1ccn(CCN2CCCC2)n1 [Example 83, 6-(1H-Indazol-6-yl)-N2-[1-methyl-1-[1-(2-pyrrolidin-1-ylethyl)pyrazol-3-yl]ethyl]-1,3,5-triazine-2,4-diamine hydrochloride] | 7.08e-07

From patent publication US20240300936A1 (priority 2021, published 2024)
